{
  "source": "paper PMC6178282",
  "about": "“Comparative cell biological study of in vitro antitumor and antimetastatic activity on melanoma cells of GnRH-III-containing conjugates modified with short-chain fatty acids” (Beilstein Journal of Organic Chemistry, 2018)",
  "key": {"A2058 cells [1]": {"system": "A2058 cells", "test": "Inhibition assay for phosphatidylinositol 3-kinase (pretreatment with wortmannin or LY294002, alamarBlue viability)", "type": "cell-based, human", "details": "then compound 10^−5 M for 48 h, from averages of 6 parallels", "experimental": "The association of PI3K activation with the antitumor activity of the conjugates was determined by pretreating the cells with PI3K inhibitors (wortmannin – W and LY294002 – LY). The antitumor effect of the conjugates and Dau on the cells pretreated with PI3K inhibitors or with DMSO (solvent of the inhibitors) was assessed by an alamarBlue-assay after 48 h of incubation. The results of the PI3K-assay were given by calculating the inhibition index as the ratio of the viability of the pretreated and control (DMSO-treated) cell populations being incubated with medium or conjugates (10^−5 M). […]\nwas measured with LS-50B Luminescence Spectrometer (Perkin Elmer Ltd., Buckinghamshire United Kingdom) by using λ = 560 nm for excitation and λ = 590 nm for detection of the emitted light.\nEach data represents the mathematical average of six parallels. The decrease in the fluorescence intensity caused by the different treatments was normalized to the identical control and this value was given as ‘Viability’ in percent. […]\nA2058 cells were prepared in 96-well plates as it was aforementioned in ‘Cell proliferation and cytotoxicity measurement’ section. […] The number of viable cells was determined by the alamarBlue-assay as it was described in ‘Cell proliferation and cytotoxicity measurement’ chapter. To analyze the effects of inhibitors on the actions of conjugates, the inhibition index was calculated by […]"}, "A2058 cells [2]": {"system": "A2058 cells", "test": "Cell adhesion measurement, xCELLigence impedimetry", "type": "cell-based, human", "details": "Delta CI at 3 h normalized to control, three parallels", "from_the_text": "The first crucial steps in metastasis cascade are the impaired adhesion contacts and in parallel the increased motility of tumor cells. These two events substantially provide for tumor cells to detach from the primary tumor and migrate to the surrounding tissue. Besides the tumor-selective antiproliferative/cytotoxic activity of the conjugates, they could be also desired to have an ability to interfere with the dissemination of cancer cells by modulating their adhesion and migration. In order to evaluate the conjugates as antimetastatic therapeutics, their effects on melanoma cell adhesion were investigated by the impedance-based xCELLigence System. The cell adhesion modulator effects of compounds were characterized by Delta Cell index values. […]\nThe effect of Dau-GnRH-III conjugates on cell adhesion of model cell was assessed using the xCELLigence SP System ( ACEA Biosciences, San Diego, CA, USA).\nThe adhesion assay, analogous to the description in [5], was started with a background measurement as mentioned above in the section “Cell proliferation and cytotoxicity measurement”. […] The adhesion of A2058 cells was monitored every 20 sec for at least 12 h at 10 kHz.\nThe attachment and spreading of model cell were characterized by a time-course study of the Delta CI values. The Delta CI values were calculated by the integrated software (RTCA 2.0). […]"}},
  "data": [
    {"smiles": "COc1cccc2c1C(=O)c1c(O)c3c(c(O)c1C2=O)C[C@@](O)(C(C)=O)C[C@@H]3O[C@H]1C[C@H](N)[C@H](O)[C@H](C)O1", "note": "[daunorubicin]", "values": [
      {"measurement": "inhibition index, LY294002", "setting": "A2058 cells [1]; A2058 cells pretreated 30 min with LY294002 (15 μM)", "result": "100.7 ± 4.0", "unit": "%"},
      {"measurement": "inhibition index, wortmannin", "setting": "A2058 cells [1]; A2058 cells pretreated 30 min with wortmannin (50 nM)", "result": "121.0 ± 8.1", "unit": "%"},
      {"measurement": "effect on cell adhesion (Delta Cell index)", "setting": "A2058 cells [2]; 10^−5 M", "result": "decrease"},
      {"measurement": "concentrations at which adhesion of A2058 cells was increased (Delta Cell index)", "setting": "A2058 cells [2]; tested 10^−8–10^−5 M", "result": "10^−8 to 10^−7 M"}
    ]}
  ]
}
